In ChEMBL document CHEMBL4354786, “Prodrug strategies for targeted therapy triggered by reactive oxygen species” (Medchemcomm, 2019):

Assay: Drug metabolism in pH 7.5 HEPES buffer assessed as hydrolysis after 24 hrs

Structure (SMILES) | Drug metabolism [%]
O=C(NCc1ccc(-c2ccccc2)cc1)c1cccc(=O)n1OS(=O)(=O)c1ccccc1 | 100
O=C(O)c1ccc(S(=O)(=O)On2c(C(=O)NCc3ccc(-c4ccccc4)cc3)cccc2=O)cc1 | 100
